# Test results published in ChEMBL document CHEMBL1201862, “PubChem BioAssay data set” (2004).
#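 These data come from cells grown in 96-well plates and exposed to compound for 48 hours at five concentrations. GI50 = concentration required for 50% inhibition of growth.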 Active and inactive are the calls of the source. No stated cut-off is given here; in the data, active = GI50 up to about 1.1 µM and inactive = higher.
# Assays:
# Assay in all cases: inhibition of tumour cell growth, NCI panel, 48 h
# LXFL 529 = test system: LXFL 529
# NCI-H460 = test system: NCI-H460
# ACHN = test system: ACHN
# CAKI-1 = test system: CAKI-1
# SW-620 = test system: SW-620
# HCC 2998 = test system: HCC 2998
# NCI-H226 = test system: NCI-H226
# SNB-19 = test system: SNB-19
# NCI-H522 = test system: NCI-H522
# HT-29 = test system: HT-29
# DLD-1 = test system: DLD-1
# U-251 = test system: U-251
# DMS-273 = test system: DMS-273
# A549 = test system: A549
# SK-OV-3 = test system: SK-OV-3
# SN12C = test system: SN12C
# OVCAR-5 = test system: OVCAR-5
# HOP-18 = test system: HOP-18
# MOLT-4 = test system: MOLT-4
# SK-MEL-5 = test system: SK-MEL-5
# OVCAR-4 = test system: OVCAR-4
# K562 = test system: K562
# OVCAR-8 = test system: OVCAR-8
# Malme-3M = test system: Malme-3M
# RXF 393 = test system: RXF 393
# KM12 = test system: KM12
# HOP-92 = test system: HOP-92
# HL-60 = test system: HL-60
# HCT-15 = test system: HCT-15
# SNB-78 = test system: SNB-78
# RPMI-8226 = test system: RPMI-8226
# KM-20L2 = test system: KM-20L2
# SF-295 = test system: SF-295
# XF498 = test system: XF498
# NCI-H23 = test system: NCI-H23
# OVCAR-3 = test system: OVCAR-3
# SK-MEL-28 = test system: SK-MEL-28
# M14 = test system: M14
# SNB-75 = test system: SNB-75
# UACC-257 = test system: UACC-257
# 786-0 = test system: 786-0
# DMS-114 = test system: DMS-114
# COLO 205 = test system: COLO 205
# LOX IMVI = test system: LOX IMVI
# EKVX = test system: EKVX
# UO-31 = test system: UO-31
# RXF 631 = test system: RXF 631
# SK-MEL-2 = test system: SK-MEL-2
# HOP-62 = test system: HOP-62
# TK-10 = test system: TK-10
# SF-268 = test system: SF-268
# CCRF-CEM = test system: CCRF-CEM
# SF-539 = test system: SF-539
# M19-MEL = test system: M19-MEL
# IGROV-1 = test system: IGROV-1
# A498 = test system: A498
# UACC-62 = test system: UACC-62
smiles,measurement,setting,value
O=C1c2ccccc2CC1C1(O)C(=O)Nc2c(Cl)cc(Cl)cc21 (configuration not stated),GI50,LXFL 529,18.8 µM (inactive)
same,GI50,NCI-H460,99.8 µM (inactive)
same,GI50,ACHN,64 µM (inactive)
same,GI50,CAKI-1,> 100 µM (inactive)
same,GI50,SW-620,35.2 µM (inactive)
same,GI50,HCC 2998,> 100 µM (inactive)
same,GI50,NCI-H226,44.2 µM (inactive)
same,GI50,SNB-19,37.1 µM (inactive)
same,GI50,NCI-H522,17.9 µM (inactive)
same,GI50,HT-29,67.8 µM (inactive)
same,GI50,DLD-1,53.1 µM (inactive)
same,GI50,U-251,54.8 µM (inactive)
same,GI50,DMS-273,68.4 µM (inactive)
same,GI50,A549,47.9 µM (inactive)
same,GI50,SK-OV-3,> 100 µM (inactive)
same,GI50,SN12C,> 100 µM (inactive)
same,GI50,OVCAR-5,> 100 µM (inactive)
same,GI50,HOP-18,14.1 µM (inactive)
same,GI50,MOLT-4,30.5 µM (inactive)
same,GI50,SK-MEL-5,27.9 µM (inactive)
same,GI50,OVCAR-4,92.5 µM (inactive)
same,GI50,K562,30.8 µM (inactive)
same,GI50,OVCAR-8,39.4 µM (inactive)
same,GI50,Malme-3M,79.6 µM (inactive)
same,GI50,RXF 393,23.6 µM (inactive)
same,GI50,KM12,47.2 µM (inactive)
same,GI50,HOP-92,53.3 µM (inactive)
same,GI50,HL-60,35.9 µM (inactive)
same,GI50,HCT-15,42.5 µM
same,GI50,SNB-78,> 100 µM (inactive)
same,GI50,RPMI-8226,20.8 µM (inactive)
same,GI50,KM-20L2,> 100 µM (inactive)
same,GI50,SF-295,47.9 µM (inactive)
same,GI50,XF498,28.4 µM (inactive)
same,GI50,NCI-H23,24.9 µM (inactive)
same,GI50,OVCAR-3,53.5 µM (inactive)
same,GI50,SK-MEL-28,> 100 µM (inactive)
same,GI50,M14,> 100 µM (inactive)
same,GI50,SNB-75,61.9 µM (inactive)
same,GI50,UACC-257,27 µM (inactive)
same,GI50,786-0,> 100 µM (inactive)
same,GI50,DMS-114,21.9 µM (inactive)
same,GI50,COLO 205,75.2 µM (inactive)
same,GI50,LOX IMVI,61.8 µM (inactive)
same,GI50,EKVX,67 µM (inactive)
same,GI50,UO-31,49.8 µM (inactive)
same,GI50,RXF 631,> 100 µM (inactive)
same,GI50,SK-MEL-2,97.5 µM (inactive)
same,GI50,HOP-62,99.5 µM (inactive)
same,GI50,TK-10,> 100 µM (inactive)
same,GI50,SF-268,61 µM (inactive)
same,GI50,CCRF-CEM,26.6 µM (inactive)
c1ccc2c(c1)N=C(c1ccc3ccccc3c1)CC(c1cccc3ccccc13)S2 (configuration not stated),GI50,LXFL 529,24.2 µM (inactive)
same,GI50,NCI-H460,29.6 µM (inactive)
same,GI50,ACHN,38.5 µM (inactive)
same,GI50,CAKI-1,55.8 µM (inactive)
same,GI50,SW-620,32.8 µM (inactive)
same,GI50,HCC 2998,15.1 µM (inactive)
same,GI50,NCI-H226,45.4 µM (inactive)
same,GI50,SNB-19,46.8 µM (inactive)
same,GI50,NCI-H522,24.3 µM (inactive)
same,GI50,HT-29,30.2 µM (inactive)
same,GI50,DLD-1,11.6 µM (inactive)
same,GI50,U-251,60.1 µM (inactive)
same,GI50,DMS-273,36.1 µM (inactive)
same,GI50,A549,48 µM (inactive)
same,GI50,SK-OV-3,> 100 µM (inactive)
same,GI50,SN12C,59.3 µM (inactive)
same,GI50,OVCAR-5,> 100 µM (inactive)
same,GI50,HOP-18,> 100 µM (inactive)
same,GI50,MOLT-4,11.4 µM (inactive)
same,GI50,SF-539,51.6 µM (inactive)
same,GI50,M19-MEL,29.9 µM (inactive)
same,GI50,SK-MEL-5,38.5 µM (inactive)
same,GI50,OVCAR-4,33.6 µM (inactive)
same,GI50,K562,17.2 µM (inactive)
same,GI50,OVCAR-8,37.9 µM (inactive)
same,GI50,Malme-3M,> 100 µM (inactive)
same,GI50,RXF 393,40.4 µM (inactive)
same,GI50,KM12,18.9 µM (inactive)
same,GI50,HL-60,15.1 µM (inactive)
same,GI50,HCT-15,21.3 µM
same,GI50,RPMI-8226,11.2 µM (inactive)
same,GI50,KM-20L2,43.5 µM (inactive)
same,GI50,SF-295,47.1 µM (inactive)
same,GI50,IGROV-1,14 µM (inactive)
same,GI50,A498,27.5 µM (inactive)
same,GI50,XF498,35 µM (inactive)
same,GI50,NCI-H23,25.7 µM (inactive)
same,GI50,OVCAR-3,33 µM (inactive)
same,GI50,SK-MEL-28,83.4 µM (inactive)
same,GI50,M14,54.8 µM (inactive)
same,GI50,UACC-62,21 µM (inactive)
same,GI50,SNB-75,56.5 µM (inactive)
same,GI50,UACC-257,56.6 µM (inactive)
same,GI50,786-0,44.1 µM (inactive)
same,GI50,DMS-114,24.3 µM (inactive)
same,GI50,COLO 205,68.7 µM (inactive)
same,GI50,LOX IMVI,25.3 µM (inactive)
same,GI50,EKVX,61.4 µM (inactive)
same,GI50,UO-31,59.7 µM (inactive)
same,GI50,RXF 631,34.4 µM (inactive)
same,GI50,SK-MEL-2,> 100 µM (inactive)
same,GI50,HOP-62,85.5 µM (inactive)
same,GI50,TK-10,75.7 µM (inactive)
same,GI50,SF-268,48.3 µM (inactive)
same,GI50,CCRF-CEM,12.6 µM (inactive)
